From ChEMBL document CHEMBL1150448, “Dihydropyridines: a new class of angiotensin II antagonists” (Bioorg Med Chem Lett, 1994)

How the values were obtained:
[1] = target: T1, Angiotensin II receptor (AT-1) type-1 (Rattus norvegicus, UniProt P29089+P25095); test: Binding affinity to Angiotensin II receptor, type 1 as displacement of 125I-Sar, Ile-AII from rat adrenal cortex membranes; assay type: cell membranes, Membrane
T1 sequence (P29089 whole entry): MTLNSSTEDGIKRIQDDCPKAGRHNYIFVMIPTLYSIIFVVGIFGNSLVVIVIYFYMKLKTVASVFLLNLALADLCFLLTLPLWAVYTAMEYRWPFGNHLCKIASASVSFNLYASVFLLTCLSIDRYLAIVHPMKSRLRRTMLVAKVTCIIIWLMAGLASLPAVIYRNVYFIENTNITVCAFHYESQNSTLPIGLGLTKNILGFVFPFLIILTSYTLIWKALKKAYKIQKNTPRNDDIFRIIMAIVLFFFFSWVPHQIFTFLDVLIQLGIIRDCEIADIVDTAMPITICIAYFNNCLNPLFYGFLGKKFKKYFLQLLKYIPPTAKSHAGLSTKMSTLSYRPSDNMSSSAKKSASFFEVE
T1 sequence (P25095 whole entry): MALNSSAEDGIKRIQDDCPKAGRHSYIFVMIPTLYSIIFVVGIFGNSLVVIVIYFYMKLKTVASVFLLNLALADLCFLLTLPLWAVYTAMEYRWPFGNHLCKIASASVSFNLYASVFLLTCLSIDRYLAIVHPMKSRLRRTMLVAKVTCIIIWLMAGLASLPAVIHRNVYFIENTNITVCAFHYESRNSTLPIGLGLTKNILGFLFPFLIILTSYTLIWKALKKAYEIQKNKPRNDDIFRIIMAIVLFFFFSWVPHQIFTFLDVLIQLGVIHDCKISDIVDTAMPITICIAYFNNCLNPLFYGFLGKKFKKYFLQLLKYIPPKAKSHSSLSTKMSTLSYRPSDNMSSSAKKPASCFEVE

[2] = Calcium channel blocking activity (CCB); assay type: functional
[3] = Compound was evaluated for inhibitory activity against PAF (platelet activating factor) induced platelet aggregation; assay type: functional
Rattus norvegicus = test: Dose required to produce 30 […] decrease in blood pressure that lasted for >6 hr.; assay type: functional

| IC50 [1] [nM] | IC50 [2] [nM] | IC50 [3] [nM] | SMILES | Dose (Rattus norvegicus) [mg/kg] |
| --- | --- | --- | --- | --- |
| 2000 | – | – | CCCCc1nc2cccnc2n1CCCCCCCO/C(O)=C1\C(C(C)C)=NC(C)=C(C(=O)Nc2cccnc2)C1c1ccccc1Cl (stereo unspecified) | – |
| 100 | – | – | CCCCc1nc2cccnc2n1CCCCCCO/C(O)=C1\C(C(C)C)=NC(C)=C(C(=O)Nc2cccnc2)C1c1ccccc1Cl (stereo unspecified) | – |
| 60 | 360 | > 100000 | CCCCc1nc2cccnc2n1-c1ccc(CCO/C(O)=C2\C(C)=NC(C)=C(C(=O)Nc3ccccn3)C2c2ccccc2Cl)cc1 (stereo unspecified) | – |
| 120 | > 100000 | > 100000 | CCCCc1nc2cccnc2n1-c1ccc(CCO/C(O)=C2\C(C(C)C)=NC(C)=C(C(=O)Nc3ccccn3)C2c2ccccc2Cl)cc1 (stereo unspecified) | – |
| 200 | – | – | CCCCc1nc2cccnc2n1CCCCCO/C(O)=C1\C(C(C)C)=NC(C)=C(C(=O)Nc2cccnc2)C1c1ccccc1Cl (stereo unspecified) | – |
| 5300 | – | – | CCCCc1nc2cccnc2n1-c1ccc(CCO/C(O)=C2\C(C(C)C)=NC(C)=C(C(=O)Nc3cccnc3)C2c2ccccc2Cl)cc1 (single isomer, unassigned; (+)) | – |
| 130 | – | – | CCCCc1nc2cccnc2n1-c1ccc(CCO/C(O)=C2\C(C(C)C)=NC(C)=C(C(=O)Nc3cccnc3)C2c2ccccc2Cl)cc1 (single isomer, unassigned; (-)) | 60 |
| 600 | > 100000 | 30 | CCCCc1nc2cccnc2n1-c1ccc(CCO/C(O)=C2\C(C(C)C)=NC(C)=C(C(=O)Nc3cccnc3)C2c2ccccc2Cl)cc1 (stereo in doubt) | – |
| 140 | – | – | CCCCc1nc2cccnc2n1-c1ccc(CCO/C(O)=C2\C(C(C)C)=NC(C)=C(C(=O)Nc3cccnc3)C2c2ccccc2Cl)cc1 (stereo in doubt; 12) | – |
